The test system of one assay is Echin c.g. Briefly: Table 13, % damage. It is filed as in vivo. The source says: (§1) The vessels employed were plastic flowerpots having a volume of 300 cm^3; the substrate was a sandy loam containing about 1.5% humus. The seeds of the test plants (see Table 1) were sown shallow, and separated according to species. In the case of Cyperus esculentus, pregerminated tubers were planted. In the preemergence treatment, the active ingredients were then immediately applied to the surface of the soil. They were suspended or emulsified in water as the vehicle, and sprayed through atomizing nozzles. After the agents had been applied, the vessels were lightly sprinkler-irrigated to set germination and growth going, and to activate the chemical agents. The vessels were then covered with transparent plastic hoods until the plants had taken root. This cover ensured uniform germination of the test plants (to the extent that this was not impaired by the chemicals), and prevented readily volatile substances from evaporating.
(§2) For postemergence treatment, the plants were first grown to a height of from 3 to 10 cm, depending on their habit, before treated. Hoods were not placed on the pots. The experiments were set up in the greenhouse, hotter areas (25° to 40° C.) being preferred for heat-loving species, and 15° to 30° C. for plants from moderate climates. The experiments were carried out for from 4 to 6 weeks. During this period the plants were tended and their reaction to the various treatments was assessed. The following tables contain the substances investigated, the application rates in kg/ha of active ingredient, and the test plant species. Assessments were made on a 0 to 100 scale, 0 denoting no damage or normal emergence, and 100 denoting no emergence or complete destruction of at least the visible plant parts.

The subject of another assay is Setar. spp. Briefly: Table 13, % damage. The class given is in vivo.
Description: as §1, §2

Assay [1] has as its system Alopec. myosur. Briefly: Table 13, % damage. It is filed as in vivo.
Description: as §1, §2

Assay [2] deals with Beta vulg. Briefly: Table 13, % damage. The class given is in vivo, Beta vulgaris.
Description: as §1, §2

For assay [3], the system named is Beta vulg. Briefly: preemergence treatment in the greenhouse, % damage. It is filed as in vivo, Beta vulgaris. Summed up:
(§3)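 Preemergence: active sprayed onto the soil surface immediately after sowing; pots sprinkler-irrigated and covered with transparent hoods until plants rooted. Postemergence: unhooded plants sprayed at 3–10 cm. Both run 4–6 weeks in greenhouse; damage 0 = none, 100 = no emergence or total kill of visible parts.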

The next assay relates to Glyc. max. Briefly: preemergence treatment in the greenhouse, % damage. It is filed as in vivo, Glycine max. The essentials:
as §3

For another assay, the system named is Cyperus ferax. Briefly: preemergence treatment in the greenhouse, % damage. It is filed as in vivo. Summed up: as §3
A further assay relates to Echin. c.g. Briefly: preemergence treatment in the greenhouse, % damage. It is filed as in vivo. The essentials:
as §3

The test system of a further assay is Setaria spp. Briefly: preemergence treatment in the greenhouse, % damage. The class given is in vivo. The essentials:
as §3

The next assay deals with Matric. spp. The assay is described as follows: preemergence treatment in the greenhouse, % damage. It is filed as in vivo. Summed up:
as §3

For a further assay, the system named is Bromus spp. The assay is described as follows: preemergence treatment in the greenhouse, % damage. The class given is in vivo. Summed up:
as §3

Assay [4] deals with Alopec. myosur. The assay is described as follows: preemergence treatment in the greenhouse, % damage. The class given is in vivo. Summed up: as §3
A further assay deals with Brassica napus. The assay is described as follows: preemergence treatment in the greenhouse, % damage. The class given is in vivo. The note with it: 1.0 kg/ha. The essentials: as §3
For another assay, the system named is Solanum nigrum. Briefly: preemergence treatment in the greenhouse, % damage. It is filed as in vivo. To be noted: 1.0 kg/ha. Summed up:
as §3

The test system of a further assay is Zea mays. The assay is described as follows: preemergence treatment in the greenhouse, % damage. The class given is in vivo. To be noted: 1.0 kg/ha. Summed up:
as §3

In the case of `Cc1cccc(C)c1N(Cn1ccnc1)C(=O)CCl`, the “% damage” value is on record as 40% in the assay with Echin c.g. (appl. rate 1.0), 20% in the assay on Setar. spp. (appl. rate 1.0), 20% in the assay with Alopec. myosur. [1] (appl. rate 1.0) and 0% with Beta vulg. [2] (appl. rate 1.0).
For the compound `Cc1cccc(C)c1N(Cn1cnc(Cl)c1Cl)C(=O)CCl`, the “% damage” value in the assay with Echin c.g. (appl. rate 0.5) is recorded as 100%; in the assay on Echin c.g. (appl. rate 1.0), 100%; with Setar. spp. (appl. rate 0.5), 100%; in the assay on Setar. spp. (appl. rate 1.0) it was 100%; in the assay with Alopec. myosur. [1] (appl. rate 0.5), 80%; with Alopec. myosur. [1] (appl. rate 1.0) it was 80%. In addition, the “% damage” value in the assay with Beta vulg. [2] (appl. rate 0.5) and with Beta vulg. [2] (appl. rate 1.0) was 0% throughout.
Take `CCc1cccc(C)c1N(Cn1cnc(Cl)c1Cl)C(=O)CCl`: the “% damage” value in the assay on Echin c.g. (appl. rate 0.5), in the assay on Echin c.g. (appl. rate 1.0), in the assay on Setar. spp. (appl. rate 0.5), in the assay with Setar. spp. (appl. rate 1.0), in the assay on Alopec. myosur. [1] (appl. rate 0.5) and in the assay on Alopec. myosur. [1] (appl. rate 1.0) was 100% each time. Further, the “% damage” value with Beta vulg. [2] (appl. rate 0.5) and in the assay with Beta vulg. [2] (appl. rate 1.0) was 0% each time.
For `CCc1cccc(CC)c1N(Cn1cc(OC)cn1)C(=O)CCl`, the “% damage” value with Beta vulg. [3] (1.0 kg/ha) is reported as 10%; with Beta vulg. [3] (2.0 kg/ha) it was 15%; in the assay on Glyc. max (1.0 kg/ha), 0%; with Glyc. max (2.0 kg/ha), 0%; with Cyperus ferax (1.0 kg/ha), 100%; in the assay on Cyperus ferax (2.0 kg/ha), 100%. Further, the “% damage” value stood at 100% in the assay with Echin. c.g. (1.0 kg/ha); 100% in the assay with Echin. c.g. (2.0 kg/ha); 100% in the assay on Setaria spp. (1.0 kg/ha); 100% in the assay with Setaria spp. (2.0 kg/ha); 90% in the assay on Matric. spp. (1.0 kg/ha); 98% with Matric. spp. (2.0 kg/ha). Also, the “% damage” value with Bromus spp. (1.0 kg/ha) is on record as 98%; in the assay with Bromus spp. (2.0 kg/ha), 98%; in the assay on Alopec. myosur. [4] (1.0 kg/ha) it was 99%; in the assay with Alopec. myosur. [4] (2.0 kg/ha), 99%.
Take `Cc1cc(C)n(CN(C(=O)CCl)c2ccccc2C)n1`: the “% damage” value with Echin. c.g. (1.0 kg/ha) was found to be 85%; with Setaria spp. (1.0 kg/ha), 60%; with Brassica napus it was 10%; in the assay on Matric. spp. (1.0 kg/ha), 90%; in the assay with Solanum nigrum, 100%; in the assay with Bromus spp. (1.0 kg/ha), 95%. Also, the “% damage” value turned out to be 0% in the assay on Zea mays and 85% in the assay with Alopec. myosur. [4] (1.0 kg/ha).

The record behind these values is patent US4593104A, “2-halo-N-(azole-1-yl-methyl)-substituted acetanilides” (BASF Aktiengesellschaft, priority 1976, dated 1986).
